The values below come from ChEMBL document CHEMBL1138822, “Bis-quinolinium cyclophanes: toward a pharmacophore model for the blockade of apamin-sensitive SKCa channels in sympathetic neurons” (Bioorg Med Chem Lett, 2004).

The test has as its target Small conductance calcium-activated potassium channel (Rattus norvegicus, UniProt P70604+P70606+P70605). Briefly: Inhibition of after hyperpolarization (AHP) of cultured rat sympathetic neurons as SKCa channel blocking activity. The class given is functional, cell-based. The conditions noted are these: sympathetic neuron.
With `c1ccc2c(c1)c1cc[n+]2CCCC[n+]2ccc(c3ccccc32)NCCCCN1`, the IC50 turned out to be 40 nM.
With `[I-].[I-].c1ccc2c(c1)c1cc[n+]2CCCCCCCC[n+]2ccc(c3ccccc32)NCCCCCCCCN1` the figure was 190 nM.
Turning to `c1ccc2c(c1)c1cc[n+]2CCCCC[n+]2ccc(c3ccccc32)NCCCCCCN1`, the IC50 worked out at 12 nM.
Regarding `c1cc2cc(c1)C[n+]1ccc(c3ccccc31)NCCCNc1cc[n+](c3ccccc13)C2`, the IC50 was 25 nM.
The same measure for `c1cc2cc(c1)C[n+]1ccc(c3ccccc31)NCCCCCNc1cc[n+](c3ccccc13)C2`: 31 nM; for `c1ccc2c(c1)c1cc[n+]2CCCC[n+]2ccc(c3ccccc32)NCCCCCN1`: 15 nM; for `c1ccc2c(c1)c1cc[n+]2CCCCC[n+]2ccc(c3ccccc32)NCCCCN1`: 9 nM.
Turning to `c1ccc2c(c1)c1cc[n+]2CCCCCC[n+]2ccc(c3ccccc32)NCCCCCN1`, the IC50 is listed as 16 nM.
With `c1ccc2c(c1)c1cc[n+]2CCCCC[n+]2ccc(c3ccccc32)NCCCN1` the figure was 30 nM; with `c1ccc2c(c1)c1cc[n+]2CCCCCCCCCC[n+]2ccc(c3ccccc32)NCCCCCCCCCCN1`, 260 nM; with `c1ccc2c(c1)c1cc[n+]2CCCCCC[n+]2ccc(c3ccccc32)NCc2ccc(cc2)CN1`, 65 nM.
With `c1ccc2c(c1)c1cc[n+]2CCCCCC[n+]2ccc(c3ccccc32)NCCCCCCN1` the figure was 60 nM; with `c1ccc2c(c1)c1cc[n+]2CCCCC[n+]2ccc(c3ccccc32)NCc2ccc(cc2)CN1`, 60 nM.
For the compound `c1cc2cc(c1)C[n+]1ccc(c3ccccc31)NCCCCCCNc1cc[n+](c3ccccc13)C2`, the half-inhibitory concentration (IC50) turned out to be 35 nM.
For the compound `[I-].[I-].c1ccc2c(c1)c1cc[n+]2CCCCC[n+]2ccc(c3ccccc32)NCCCCCN1`, the IC50 turned out to be 2 nM.
The same measure for `c1ccc2c(c1)c1cc[n+]2CCC[n+]2ccc(c3ccccc32)NCc2ccc(cc2)CN1`: 150 nM.
The same measure for `c1ccc2c(c1)c1cc[n+]2CCC[n+]2ccc(c3ccccc32)NCCCN1` (stereo in doubt; 2l): 630 nM; for `c1ccc2c(c1)c1cc[n+]2CCC[n+]2ccc(c3ccccc32)NCCCN1` (stereo in doubt; 2m): 380 nM.
Take `Cc1cc(N)c2ccccc2[n+]1CCCCCCCCCC[n+]1c(C)cc(N)c2ccccc21.[Cl-].[Cl-]` [DEQUALINIUM CHLORIDE]: the IC50 worked out at 900 nM.
